# According to US12291513B2, “Pyridinium derivatives made by hydrothermal synthesis for use as anolytes in electrochemical cells” (Wisconsin Alumni Research Foundation, priority 2021, dated 2025):
# Assays:
# [1] = Electrochemical impedance spectroscopy (EIS); assay type: physicochemical
# Description: CV and EIS experiments were ran using a PalmSens4 potentiostat with the PSTrace software. Electrochemical experiments were performed in 1.0 M NaCl supporting electrolyte using 15 mM of active material at room temperature (18° C.). Formal potentials for the redox couples were estimated by taking the average potential between the cathodic and anodic peak. Diffusional behavior was investigated by varying the scan rate between 10-100 mV·s^−1 for the first electron reduction and 50-200 mV·s^−1 for the second electron reduction, and the diffusion constants of the reduced and oxidized states (D^R and D^O) were determined via the Randles-Sevcik equation assuming ideal reversible behavior (FIG. 12D). Potentiostatic EIS measurements were used for determination of a combined diffusional constant of the reduced and oxidized states (D^EIS) and of the standard electron kinetic rate constant (k^o). These EIS measurements were performed at the formal reduction potential (held for 30 seconds before measurement) in which the concentration of the two redox states at the electrode surface were assumed to be the same and equal to half of the initially prepared redox species concentration.
# A glassy carbon working electrode (CH Instruments, 0.0707 cm^2), a saturated calomel reference electrode (SCE, CH Instruments, +0.241 V vs. SHE), and a platinum wire counter electrode were used for both CV and EIS measurements. The working electrode was polished with 1 μm, 0.3 μm, and 0.05 μm alumina slurry successively. All electrodes were rinsed with deionized water in between measurements.
# Potentiostatic EIS measurements were taken at the formal potential in which the reduction and oxidation processes are at equilibrium and the concentrations of the reduced and oxidized states can be assumed equal. This permitted simple calculation of the standard kinetic rate constant (k^o) via Eqn. 2 where R is the ideal gas constant, T is temperature, n is number of electrons, RCT is the charge-transfer resistance, F is Faraday's constant, A is the electrode surface area in cm^2, and C is the concentration of either the oxidized or reduced form at the electrode surface in mole cm^−3 (which is assumed to be half of the initially prepared redox species concentration, C═C^O═C^R=0.5 Cinitial).
# A combined diffusion coefficient of the reduced and oxidized state (D^EIS) can also be determined using Eqn. 3, where σ is the Warburg diffusional impedance variable and all other variables have the previously defined meaning.
# RCT and σ can be determined by fitting the impedance spectrum to the ideal Randles equivalent circuit for a 3-electrode system where Ru is the uncompensated resistance between the working and reference electrode, RCT is the charge transfer resistance between the working electrode and the redox species, WD is the Warburg diffusional element, and CPE is the constant phase element that represents capacitive behavior of the working electrode.
# The raw data was fitted based on this equivalent circuit using the Z-Fitting tool on the PSTrace software and with the Levenberg-Marquardt algorithm across the entire measured frequency range. For the second redox state, D2^EIS were 3.6×10^−6 cm^2·s^−1 and 3.8×10^−6 cm^2·s^−1 and k2^o were 0.13 cm·s^−1 and 0.23 cm·s^−1 for Dex-Vi and BTMAP-Vi, respectively.
# [2] = Symmetric, volumetrically-unbalanced flow cell cycling; settings: sixteen days (150 cycles) continuous charge-discharge, N2 glovebox, first redox process
# Description: The RFB measurements were carried out in a custom-made zero-gap device previously reported by Li et al. (Li, W. et al., Chem 2018, 4 (11), 2644-2657; and Li, W. et al., Adv. Energy Mater. 2019, 9 (31), 1900918.) Both symmetric flow cell and RFB full cell measurements were conducted using a Bio-Logic SP-200 potentiostat at room temperature (˜20° C.). In symmetric cells, 0.1 M of active species in 1 M NaCl (pre-charged to 50% SOC of the first electron reduction using FcNCl as the counter cathode in bulk electrolysis) was utilized on both sides with the capacity limiting side (CLS) consisting of 5 mL of solution and the non-capacity limiting side (NCLS) consisting of 10 mL of solution separated by a Selemion AMV anion-exchange membrane (Asahi Glass Co.). The neat Dex-Vi full RFB cell cycling was performed using the product from the Dex-Vi synthesis directly without any purification. The neat product was diluted to roughly 0.1 M to pair with a 0.2 M BTMAP-Fc counter catholyte in excess capacity separated by an AMV membrane. Both the anolyte and catholyte were 5 mL in total volume with 0.5 M NaCl supporting electrolyte. […]
# [3] = Degradation kinetics in sodium hydroxide; settings: one-and-one-half order overall
# Description: The chemical stability of the first redox processes of Dex-Vi was investigated using a symmetric, volumetrically-unbalanced flow cell inside an N2 glovebox.
compound,measurement,setting,value
"C[N+](C)(C)CC(O)C[n+]1ccc(-c2cc[n+](CC(O)C[N+](C)(C)C)cc2)cc1 (stereo not shown) [Dex-Vi, bis(3-trimethylammonio-2-hydroxy)propyl viologen tetrachloride]",EIS D,[1]; Example 2,3.516E−06 cm^2/s
same,EIS i^0,[1]; Example 2,6.57E−04 A
same,EIS k^0,[1]; Example 2,0.0128 cm/s
same,k1^0,[1]; Table 1,0.05 cm/s
same,combined diffusion coefficient (D1^EIS),[1]; first reduction,3.9×10^−6 cm^2·s^−1
same,standard rate constant (k1^0),[1]; first reduction,0.05 cm/s
same,D2^EIS,[1]; second redox state,3.6×10^−6 cm^2·s^−1
same,k2^o,[1]; second redox state,0.13 cm/s
same,decay in symmetric flow cell,[2],no decay
same,degradation rate constant k,[3],2.3×10^−6 s^−1·M^−1/2
